Measurements taken from US12661355B2, “Compounds and methods for inducing UCP1 expression” (The Regents of the University of California, priority 2020, dated 2026).

Experiments:
AKAP1 = molecular target: T1, AKAP1 (Mus musculus, UniProt O08715); assay: Drug Affinity Responsive Target Stability (DARTS) in BAT or brown adipocyte extracts, AKAP1; type: binding; details: mouse brown adipocyte extracts, 1 h, 20 μM (CL316,243 20 nM)
T1 construct: from tissue; host or cells: mouse brown adipose tissue (BAT) lysate; also mouse brown adipocyte extracts
T1 sequence (O08715 30-857): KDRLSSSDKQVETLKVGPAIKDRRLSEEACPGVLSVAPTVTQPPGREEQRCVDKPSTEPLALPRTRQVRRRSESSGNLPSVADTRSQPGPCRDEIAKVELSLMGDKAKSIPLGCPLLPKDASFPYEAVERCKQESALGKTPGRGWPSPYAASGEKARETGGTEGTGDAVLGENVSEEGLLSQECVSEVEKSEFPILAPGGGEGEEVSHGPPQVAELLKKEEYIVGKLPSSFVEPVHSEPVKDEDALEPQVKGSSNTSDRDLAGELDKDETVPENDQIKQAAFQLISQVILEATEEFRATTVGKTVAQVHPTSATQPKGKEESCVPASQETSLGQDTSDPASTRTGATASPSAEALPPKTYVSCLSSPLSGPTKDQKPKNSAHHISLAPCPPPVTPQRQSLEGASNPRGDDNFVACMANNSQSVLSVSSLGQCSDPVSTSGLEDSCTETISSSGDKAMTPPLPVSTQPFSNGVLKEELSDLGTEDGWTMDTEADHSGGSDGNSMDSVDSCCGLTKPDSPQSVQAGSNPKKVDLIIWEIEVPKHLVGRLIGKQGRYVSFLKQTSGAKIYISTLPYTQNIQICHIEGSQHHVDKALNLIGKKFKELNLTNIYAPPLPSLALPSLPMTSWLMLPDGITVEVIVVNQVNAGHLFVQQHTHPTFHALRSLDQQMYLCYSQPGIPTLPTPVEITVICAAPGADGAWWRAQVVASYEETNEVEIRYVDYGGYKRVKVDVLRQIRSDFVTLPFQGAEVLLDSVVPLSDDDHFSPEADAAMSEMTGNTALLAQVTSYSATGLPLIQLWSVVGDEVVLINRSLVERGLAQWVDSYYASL
Experimental: […] assays were performed according to known methods. Briefly, BAT or cells within a 10 cm dish were lysed with 600 μl M-PER buffer containing protease and phosphatase inhibitors. Debris was pelleted by centrifugation at 18,000 g for 10 min at 4° C., and the lysates were harvested and supplemented with TNC buffer (50 mM Tris-HCl, 50 mM NaCl, 10 mM CaCl2). The lysates were split into two tubes and treated with either vehicle or 20 μM Z160 for 1 h at room temperature. For experiment with BAT, 100 μg of lysate was incubated with different Z160 concentrations. Different concentrations of pronase (from 1:100 to 1:10,000 dilution from a 1.25 mg/ml pronase stock) were incubated with the samples for 30 min at room temperature and the reaction was stopped with SDS loading buffer followed immediately by heating at 70° C. for 10 min. Protein lysates were separated by SDS-PAGE and transferred to a nitrocellulose membrane. After blocking in 5% milk, 0.1% Tween-20 in Tris-buffered saline (TBS), primary antibody was incubated overnight at 4° C. in 5% bovine serum albumin and 0.1% Tween-20 in TBS. Primary antibodies against AKAP1 (5203, Cell Signaling), AKAP13 (39715, One World Lab), GAPDH (GTX100118, Genetex), OPA1 (39557, One World Lab), PKA C-α (4782, Cell Signaling), PKA RII-β (ab75993, Abcam), were used at 1:2000. A goat anti-rabbit secondary antibody (sc-2030, Santa Cruz Biotechnology, Inc) was used at a 1:10,000 dilution for 1 h at room temperature in 5% milk and 0.1% Tween-20 in TBS.
The PKA tetramer consists of two catalytic and two regulatory subunits. In the mouse, these are catalytic subunits C-α and C-β, and regulatory subunits RI and RII, each with α and β isoforms (RI-α, RI-β, RII-α, RII-β). PKA is also bound to a family of anchoring proteins, A-kinase anchoring proteins (AKAPs), which allow the compartmentalization of cAMP signaling. To investigate whether Z160 binds PKA complex proteins, two techniques were applied both of which rely on ligand-induced alterations in protein stability: Cellular Thermal Shift Assay (CETSA) and Drug Affinity Responsive Target Stability (DARTS). CETSA is based on the principle that ligand binding will change the temperature at which a protein starts to unfold and aggregate, while DARTS relies on the protection of a protein from proteolysis upon specific binding to a small molecule.
To provide further evidence for an interaction between Z160 and AKAP1, DARTS assays were employed. Lysates from brown fat were treated with different Z160 concentrations for 1 h followed by pronase digestion and immunoblotting. […] The effect of Z160 on AKAP1 was confirmed using mouse brown adipocyte extracts (FIG. 15A).

Ucp1 = assay: Gene expression by qPCR in immortalized brown adipocytes; type: cell-based, mouse; details: for effect of antagonist on induction of Ucp1 mRNA by Z160: 20 μM antagonist 1 h prior to and during overnight 10 μM Z160
Experimental: Primary brown adipocytes were isolated according to known methods. An established mouse brown adipocyte cell line was obtained from Dr. Bruce Spiegelman (Dana-Farber Cancer Institute, Boston, USA). To differentiate primary and immortalized brown adipocytes, cells were grown until confluency in DMEM containing 10% FBS, 25 mM glucose 1 mM pyruvate, 2 mM glutamine, 20 nM insulin, 1 nM T3, and antibiotics. Once confluent (day 0), differentiation was induced by supplementing the medium with 0.5 mM IBMX, 0.5 μM dexamethasone, and 0.125 mM indomethacin, for 2 days. Differentiation was continued in the original medium (without IBMX, dexamethasone and indomethacin) for 7-10 days.
TScreening was conducted at the UCLA Molecular Screening Shared Resource using automated instruments Immortalized brown adipocytes were differentiated in T225 flasks and plated in Matrix 384-well plates (26,000 cells per well) with white flat bottom (ThermoScientific) using trypsin and collagenase type II (Sigma C6885). The small molecule libraries screened were a BioMol library (204 compounds), an FDA-approved drug library (1120 compounds), a Microsource spectrum collection (2000 compounds), and a druggable compound set (8000 compounds). Molecules were delivered at 10 μM final concentration in DMSO. The screen was performed in duplicate on different days. After 18 h, luciferase activity was measured with Bright-Glo luciferase assay system and an LJL instrument. Data were normalized to the basal response (100% activity) in the presence of DMSO. Following the primary screen, 92 molecules were selected for validation and used to treat brown adipocyte cells plated in a 96-well plate overnight. RNA was extracted with an SV 96 Total RNA Isolation System (Promega). Compounds used for follow-up studies were identified using search tools available from Molport (molport.com), and ordered from the same company.
(§1) RNA levels were measured by qPCR according to known methods. Briefly, RNA was extracted with TRIzol (Invitrogen) and reverse transcribed with iScript (Bio-Rad). Real-time PCR analysis was performed with a CFX Connect (Bio-Rad).
Mouse RNA levels were measured by qPCR according to known methods. Data were normalized to B2m and Tbp reference genes. Human RNA was extracted using an RNA Mini Plus kit (Zymo) and gene expression determined by Taqman assay. The 1-step qPCR was run on a QuantStudio 12K Flex Real Time PCR System (ThermoFisher) using the following protocol: 50° C. for 5 minutes, 95° C. for 20 seconds, 40 cycles of 95° C. for 15 seconds and 60° C. for 60 seconds. Data were normalized to PPIA and PSMB2 reference genes. For global gene expression analysis, RNA isolated from brown adipocytes treated with compounds as indicated (four biological replicates) was hybridized to Illumina mouse Ref 8 V2.0 bead chips at the University of California, Los Angeles Neuroscience Genomics Core as previously described. Data were processed with GenomeStudio V2011.1 using the quantile normalization, background subtraction, and a present call of P<0.05.

PKA = PKA activity ELISA, cell or tissue lysates treated 30 min; type: biochemical, mouse; details: cell lysates, 500 μM H-89 10 min, then 50 μM Z160 30 min
Experimental: PKA kinase activity was measured with an ELISA that utilized a synthetic peptide as substrate for PKA and a polyclonal antibody that recognizes the phosphorylated form of the substrate (ab139435, Abcam). PKA activity was measured in lysates from cultured brown adipocytes, mouse BAT, or liver. Cells and tissues were lysed in 20 mM MOPS, 5 mM EGTA, 2 mM EDTA, and 0.1% Triton X-100 supplemented with protease and phosphatase inhibitor as described above. Protein concentration was determined by Bradford assay and 10 μg of cells, 0.25 μg of BAT extract, or 0.5 μg of liver extract were assessed for PKA activation according to the manufacturer's instruction, with minor changes. Briefly, vehicle or Z160 was incubated with brown adipocyte cells overnight or with protein lysates for 30 min, followed by one wash before the primary antibody, 60 min incubation with the primary antibody, 30 min incubation with the secondary antibody, and by 10 min washing. Absorbance was measured after the substrate was added for 20-60 min, depending the intensity of the signal.

NRVM [1] = assay: Respirometry (reserve capacity) in neonatal rat ventricular myocytes; type: cell-based; details: 48 h 100 μM isoproterenol followed by 24 h rest
Experimental: (§2) Rat H9c2 cells were grown in DMEM supplemented with 10% FBS, 25 mM glucose, 1 mM pyruvate, and 2 mM glutamine Neonatal rat ventricular myocytes (NRVM) were isolated and cultured as previously described. Briefly, 2-4 day old rats were sacrificed and myocytes and fibroblasts were isolated and separated using a Percoll density gradient. Following isolation, NRVMs were plated on gelatin-coated plates in DMEM containing 10% FBS, 25 mM glucose, 1 mM pyruvate, and 2 mM glutamine The next day, FBS was replaced by 1× insulin-transferrin-selenium supplement and the cells were treated with vehicle or 10 μM Z160 for 2 days, with or without 60 μM isoproterenol or 50 μM phenylephrine.
NRVM were seeded in a Seahorse Bioscience XF96 plate and cultured for 48 h in 10% FBS. Next, cells were treated with 100 μM ISO for 48 h, followed by 24 h of 10 μM Z160. Oxygen consumption rate (OCR) was recorded in a Seahorse Bioscience XF96 analyzer before and after the sequential injection of 0.75 μM oligomycin, 0.75 μm FCCP and 0.75 μM rotenone/myxothiazol. Reserve capacity was calculated as the difference between basal respiration and FCCP response.

NRVM [2] = assay: Hypertrophic gene expression in neonatal rat ventricular myocytes; type: cell-based; details: agonist alone, 48 h
Experimental: as §2, §1

Structure (SMILES): C[C@H](Cc1ccc2c(c1)OC(C(=O)[O-])(C(=O)[O-])O2)NC[C@H](O)c1cccc(Cl)c1.[Na+].[Na+] [CL316,243, reference compound]
- effect on AKAP1 (pronase susceptibility) (AKAP1): not observed

Structure (SMILES): O=S(=O)(NCCNC/C=C/c1ccc(Br)cc1)c1cccc2cnccc12 [H-89, reference compound]
- effect of antagonist on Z160 enhancement of Cidea and Elovl3 expression (Ucp1; 20 μM H-89 1 h prior to and during overnight 10 μM Z160): blunted
- effect of antagonist on induction of Ucp1 mRNA by Z160 (Ucp1): blocked the effect of Z160
- PKA activity and Z160 response after pre-incubation with PKA antagonist (PKA): reduced the PKA activity and negated the Z160 response

Structure (SMILES): Oc1ccc(-c2nc(-c3ccncc3)c(-c3ccc(F)cc3)[nH]2)cc1 [SB202190, reference compound]
- effect of antagonist on induction of Ucp1 mRNA by Z160 (Ucp1): blocked the effect of Z160

Structure (SMILES): CC(C)NCC(O)c1ccc(O)c(O)c1 (stereo not drawn) [isoproterenol]
- reserve capacity of mitochondrial respiration (NRVM [1]): decreased the reserve capacity
- expression of Nppa and Nppb (NRVM [2]): induced the expression
- expression of Pln (NRVM [2]): reduced expression
- expression of Nppa and Nppb (NRVM [2]; listed as ISO): increase
- expression of Pln (NRVM [2]; listed as ISO): decreasing

Structure (SMILES): CNC[C@H](O)c1cccc(O)c1 [phenylephrine]
- expression of Nppa and Nppb (NRVM [2]): induced the expression
- expression of Pln (NRVM [2]): reduced expression
- expression of Nppa and Nppb (NRVM [2]; listed as PE): increase
- expression of Pln (NRVM [2]; listed as PE): decreasing

Structure (SMILES): c1ccc(CC2=NCCN2)cc1 [tolazoline, reference compound]
- effect of antagonist on induction of Ucp1 mRNA by Z160 (Ucp1): did not prevent
